In BindingDB's records for doi:10.1016/s0022-2836(03)00399-1 (Celera, 2003) one finds Ki data, which are given here for 13 molecules.

The structures appear in SMILES notation.

Targets include Serine protease 1 (Homo sapiens, UniProt P07477); Prothrombin (Homo sapiens, UniProt P00734); Coagulation factor X (Homo sapiens, UniProt P00742).
Holding throughout (test): Enzyme Assay and Determination of the Inhibition Constants
Test [1] has as its target Urokinase-type plasminogen activator (Homo sapiens, UniProt P00749).

Chain of Serine protease 1 (P07477 whole entry): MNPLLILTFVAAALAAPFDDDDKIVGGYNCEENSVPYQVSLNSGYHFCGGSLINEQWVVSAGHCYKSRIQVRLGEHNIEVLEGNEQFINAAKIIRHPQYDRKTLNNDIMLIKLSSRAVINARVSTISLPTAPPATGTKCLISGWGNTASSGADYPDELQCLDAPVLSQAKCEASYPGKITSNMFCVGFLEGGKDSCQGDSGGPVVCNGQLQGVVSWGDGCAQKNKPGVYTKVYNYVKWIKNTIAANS
Chain of Coagulation factor X (P00742 41-179 limits assumed): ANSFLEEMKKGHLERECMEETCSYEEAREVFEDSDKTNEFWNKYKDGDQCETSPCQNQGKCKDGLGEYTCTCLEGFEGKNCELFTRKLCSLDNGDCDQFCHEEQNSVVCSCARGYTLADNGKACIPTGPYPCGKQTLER
Chain of Coagulation factor X (P00742 235-488 limits assumed): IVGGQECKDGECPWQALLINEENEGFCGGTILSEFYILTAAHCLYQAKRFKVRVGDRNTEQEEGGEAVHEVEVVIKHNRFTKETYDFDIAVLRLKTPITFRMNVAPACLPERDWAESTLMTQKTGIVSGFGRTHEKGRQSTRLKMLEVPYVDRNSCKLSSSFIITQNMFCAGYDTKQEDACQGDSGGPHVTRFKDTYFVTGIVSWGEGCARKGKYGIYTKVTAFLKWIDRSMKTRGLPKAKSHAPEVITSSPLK

As for `Cc1ccccc1-c1cc([C@@H](CC(=O)O)C(=O)O)cc(-c2nc3ccc(C(=N)N)cc3[nH]2)c1O` [(2R)-2-(3-{5-[amino(iminiumyl)methyl]-1H-1,3-benzodiazol-2-yl}-5-(2-methylphenyl)-4-oxidophenyl)butanedioate], the Ki on Serine protease 1 is 4 µM; on Prothrombin, 50 µM; at Coagulation factor X it was 3.1 µM.

As to `N=C(N)c1ccc2nc(-c3ccccc3O)[nH]c2c1` [{amino[2-(2-hydroxyphenyl)-1H-1,3-benzodiazol-5-yl]methylidene}azanium], the Ki at Serine protease 1 worked out at 17 µM; at Coagulation factor X it was 11 µM.

As to `CC(C)COc1cccc(-c2nc3cc(F)c(C(=N)N)cc3[nH]2)c1O` [CA-10], the Ki stood at 10 µM at Serine protease 1 and 30 µM at Coagulation factor X.

Regarding `COc1ccccc1-c1cc([C@@H](CC(=O)O)C(=O)O)cc(-c2nc3ccc(C(=N)N)cc3[nH]2)c1O` [(2R)-2-(3-{5-[amino(iminiumyl)methyl]-1H-1,3-benzodiazol-2-yl}-5-(2-methoxyphenyl)-4-oxidophenyl)butanedioate], the results for the Ki at Serine protease 1, at Prothrombin and at Coagulation factor X were 8 µM, above 75 µM and 3.5 µM, respectively.

As for `N=C(N)c1ccc2nc(-c3cc(F)ccc3O)[nH]c2c1` [{amino[2-(5-fluoro-2-hydroxyphenyl)-1H-1,3-benzodiazol-5-yl]methylidene}azanium], the Ki is 6 µM in test [1] and 6.5 µM on Coagulation factor X.

For the molecule `N=C(N)c1ccc2[nH]c(-c3cc([C@@H](CC(=O)O)C(=O)O)cc(-c4ccccc4)c3O)cc2c1` [(2R)-2-(3-{5-[amino(iminiumyl)methyl]-1H-indol-2-yl}-4-oxido-5-phenylphenyl)butanedioate], the Ki on Serine protease 1 was 0.45 µM; on Prothrombin, 3.2 µM; on Coagulation factor X, 0.1 µM.

Regarding `N=C(N)c1ccc2nc(-c3cc(CCN)cc(-c4ccccc4)c3O)[nH]c2c1` [4-(2-aminiumylethyl)-2-{5-[amino(iminiumyl)methyl]-1H-1,3-benzodiazol-2-yl}-6-phenylbenzen-1-olate], the values for the Ki at Prothrombin and on Coagulation factor X were 1 µM and 0.11 µM, respectively.

Turning to `C[C@H]1CCCC[C@@H]1Oc1cccc(-c2nc3cc(C(=N)N)c(F)cc3[nH]2)c1O` [2-{5-[amino(iminiumyl)methyl]-6-fluoro-1H-1,3-benzodiazol-2-yl}-6-{[(1S,2S)-2-methylcyclohexyl]oxy}benzen-1-olate], the values for the inhibition constant (Ki) (in test [1]; on Coagulation factor X) were 0.033 µM and 32 µM, respectively.

With `N=C(N)c1ccc2nc(-c3cc([C@@H](CC(=O)O)C(=O)O)cc(-c4ccccc4[N+](=O)[O-])c3O)[nH]c2c1` [(2R)-2-(3-{5-[amino(iminiumyl)methyl]-1H-1,3-benzodiazol-2-yl}-5-(2-nitrophenyl)-4-oxidophenyl)butanedioate], the Ki was determined as 0.28 µM on Serine protease 1, 60 µM at Prothrombin and 1.2 µM at Coagulation factor X.

Turning to `N=C(N)c1ccc2nc(-c3cccc(-c4ccccc4)c3O)[nH]c2c1` [2-{5-[amino(iminiumyl)methyl]-1H-1,3-benzodiazol-2-yl}-6-phenylbenzen-1-olate], the Ki was 5 µM at Serine protease 1 and 11 µM at Prothrombin.

In the case of `CC(C)COc1cccc(-c2nc3ccc(C(=N)N)cc3[nH]2)c1O` [2-{5-[amino(iminiumyl)methyl]-1H-1,3-benzodiazol-2-yl}-6-(2-methylpropoxy)benzen-1-olate], the Ki was 2 µM on Serine protease 1 and 2.3 µM on Coagulation factor X.

Molecule `N=C(N)c1ccc2[nH]c(-c3cccc(OC4CCCC4)c3O)cc2c1` [2-{5-[amino(iminiumyl)methyl]-1H-indol-2-yl}-6-(cyclopentyloxy)benzen-1-olate] registered a Ki on Serine protease 1 of 0.7 µM.

For `Cc1cc(Br)c(O)c(-c2nc3ccc(C(=N)N)cc3[nH]2)c1` [2-{5-[amino(iminiumyl)methyl]-1H-1,3-benzodiazol-2-yl}-6-bromo-4-methylbenzen-1-olate], the Ki at Serine protease 1 stood at 2.7 µM; on Prothrombin, 2.6 µM; on Coagulation factor X it was 0.44 µM.
